Target: FAK (Homo sapiens (Human), UniProt Q05397)
Test: FAK Degradation Assay (Western blot, FAK/GAPDH)
Format: cell-based
Details: MDA-MB-231 cells, 24 h treatment, Western blot normalized to DMSO; for DC50: read-out: DC50 (half-maximal degradation concentration), FAK Degradation; for Dmax: read-out: Dmax (maximal degradation), FAK Degradation
Description: H2122 (4×10^5), MIA PaCa-2 (6×10s), or MDA-MB-231 cells (6×10^5) per well were seeded into a 6-well plate containing 2 mL of complete culture medium (RPMI-1640 for H2122 and MDA-MB-231, and DMEM/F12 for MIA PaCa-2, supplemented with 10% FBS and 1% penicillin/streptomycin). The cells were cultured overnight at 37° C. in the presence of 5% C02 before treated with a compound in a series of concentrations for 24 h. The cells were then washed with ice-cold Dulbecco's phosphate-buffered saline (DPBS). A radioimmuno-precipitation assay (RIPA) buffer was added to lyse the cells on ice for 20 min. The cells were then scrapped using cell scraper and collected in a 1.5 mL tube, which was centrifuged at 14,000 g and 4° C. for 15 min. The supernatant was collected and the total protein concentration of each sample was determined using a PIERCE™ BCA protein assay kit. The supernatant was diluted to the same protein concentration with the RIPA buffer after the BCA assay. Samples of the same protein amount were mixed with 4× a lithium dodecyl sulfate (LDS) sample buffer and boiled at 95° C. for 5 min. The denatured samples were used for electrophoresis.
For Western blot, the same volume containing ˜50 μg protein for each sample was loaded onto 4-12% Bis-Tris protein gel. The gel was run at 80 V for 0.5 h and at 120 V for 1 h. When the electrophoresis was completed, an IBLOT™ 2 gel transfer device was used to transfer FAK and GAPDH proteins at 20 V for 7 min. All the membranes were blocked in 5% nonfat dry milk in a TBST buffer at RT for 1 h and then incubated with primary antibodies (anti-FAK and anti-GAPDH) in a TBST buffer containing 5% BSA at 4° C. overnight. The membranes were washed with the TBST buffer and then incubated with secondary antibodies (goat anti-rabbit IgG H&L for FAK and goat anti-mouse IgG H&L for GAPDH) at room temperature for 1 h. Blots were visualized using an IMAGEQUANT™ LAS-4000. The chemiluminescent signals from ECL™ Western blotting reagents were captured. The band integrated intensity from each 16-bit blot image was used for quantitation. The FAK/GAPDH signal ratios of each sample were normalized using DMSO as a control and the normalized data for each compound were used to obtain its half-maximal degradation concentration (DC50) and maximal degradation (Dmax).

FAK, sequence (Q05397 whole entry): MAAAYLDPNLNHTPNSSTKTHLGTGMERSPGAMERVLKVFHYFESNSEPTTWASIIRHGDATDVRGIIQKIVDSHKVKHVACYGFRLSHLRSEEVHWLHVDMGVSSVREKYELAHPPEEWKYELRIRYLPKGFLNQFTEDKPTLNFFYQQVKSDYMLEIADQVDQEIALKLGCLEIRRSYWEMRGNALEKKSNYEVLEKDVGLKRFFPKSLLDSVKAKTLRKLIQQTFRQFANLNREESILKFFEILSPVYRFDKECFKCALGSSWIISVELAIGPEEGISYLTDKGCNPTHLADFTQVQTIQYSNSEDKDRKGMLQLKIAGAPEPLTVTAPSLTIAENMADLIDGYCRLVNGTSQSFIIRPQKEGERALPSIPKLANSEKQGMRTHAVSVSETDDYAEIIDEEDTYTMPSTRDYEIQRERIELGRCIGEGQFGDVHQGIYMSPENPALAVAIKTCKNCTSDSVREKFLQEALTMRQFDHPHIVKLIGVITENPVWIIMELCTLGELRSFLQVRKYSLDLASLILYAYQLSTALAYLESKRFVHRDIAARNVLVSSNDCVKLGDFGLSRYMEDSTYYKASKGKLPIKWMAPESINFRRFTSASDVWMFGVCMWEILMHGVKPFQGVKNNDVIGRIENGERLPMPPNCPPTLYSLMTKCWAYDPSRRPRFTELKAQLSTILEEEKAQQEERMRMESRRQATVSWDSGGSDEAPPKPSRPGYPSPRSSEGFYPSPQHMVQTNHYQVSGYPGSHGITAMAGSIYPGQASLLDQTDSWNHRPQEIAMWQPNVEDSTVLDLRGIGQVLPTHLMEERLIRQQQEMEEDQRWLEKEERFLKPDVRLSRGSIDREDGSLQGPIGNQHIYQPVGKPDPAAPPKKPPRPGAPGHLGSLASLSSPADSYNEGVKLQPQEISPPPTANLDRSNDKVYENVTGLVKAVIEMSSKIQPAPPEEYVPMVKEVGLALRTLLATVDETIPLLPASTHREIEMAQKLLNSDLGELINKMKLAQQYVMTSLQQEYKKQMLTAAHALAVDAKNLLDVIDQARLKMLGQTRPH

Row | DC50 | Dmax | Compound
1 | 0.79 nM | 91% | CNC(=O)c1ccccc1Nc1cc(Nc2ccc(CN[C@@H]3CCN(c4ccc5c(c4)C(=O)N(C4CCC(=O)NC4=O)C5=O)C3)cc2)ncc1C(F)(F)F (stereo partly drawn) [Compound A32, 2-((2-((4-((((3R)-1-(2-(2,6-Dioxopiperidin-3-yl)-1,3-dioxoisoindolin-5-yl)-pyrrolidin-3-yl)amino)methyl)phenyl)amino)-5-(trifluoromethyl)pyridin-4-yl)amino)-N-methylbenzamide]
2 | 14 nM | 100% | CN(c1nccnc1CNc1nc(Nc2ccc(OCCCCCCCOc3ccc4c(c3)C(=O)N(C3CCC(=O)NC3=O)C4=O)cc2)ncc1C(F)(F)F)S(C)(=O)=O (stereo not shown) [Compound A9, N-(3-(((2-((4-((7-((2-(2,6-Dioxopiperidin-3-yl)-1,3-dioxoisoindolin-5-yl)oxy)-heptyl)oxy)phenyl)amino)-5-(trifluoromethyl)pyrimidin-4-yl)amino)methyl)pyrazin-2-yl)-N-methylmethanesulfonamide]
3 | 1.7 nM | 88% | CNC(=O)c1ccccc1Nc1cc(Nc2ccc3c(c2)CC(=O)N3CC2CCN(c3ccc4c(c3)C(=O)N(C3CCC(=O)NC3=O)C4=O)CC2)ncc1C(F)(F)F (stereo not shown) [Compound A17, 2-((2-((1-((1-(2-(2,6-Dioxopiperidin-3-yl)-1,3-dioxoisoindolin-5-yl)piperidin-4-yl)methyl)-2-oxoindolin-5-yl)amino)-5-(trifluoromethyl)pyridin-4-yl)amino)-N-methyl-benzamide]
4 | 6.1 nM | 98% | CN(c1cccc(CNc2cc(Nc3ccc(CNC4CCN(c5ccc6c(c5)C(=O)N(C5CCC(=O)NC5=O)C6=O)CC4)c(F)c3)ncc2C(F)(F)F)c1)S(C)(=O)=O (stereo not shown) [Compound A31, N-(3-(((2-((4-(((1-(2-(2,6-Dioxopiperidin-3-yl)-1,3-dioxoisoindolin-5-yl)-piperidin-4-yl)amino)methyl)-3-fluorophenyl)amino)-5-(trifluoromethyl)pyridin-4-yl)amino)-methyl)phenyl)-N-methylmethanesulfonamide]
5 | 0.86 nM | 94% | CNC(=O)c1ccccc1Nc1cc(Nc2ccc(CN[C@H]3CCN(c4ccc5c(c4)C(=O)N(C4CCC(=O)NC4=O)C5=O)C3)cc2)ncc1C(F)(F)F (stereo partly drawn) [Compound A33, 2-((2-((4-((((3S)-1-(2-(2,6-Dioxopiperidin-3-yl)-1,3-dioxoisoindolin-5-yl)-pyrrolidin-3-yl)amino)methyl)phenyl)amino)-5-(trifluoromethyl)pyridin-4-yl)amino)-N-methylbenzamide]
6 | 0.87 nM | 91% | CN1Cc2cccc(Oc3nc(Nc4ccc(CNC5CCN(c6ccc7c(c6)C(=O)N(C6CCC(=O)NC6=O)C7=O)CC5)cc4)ncc3C(F)(F)F)c2C1=O (stereo not shown) [Compound A28, 2-(2,6-dioxopiperidin-3-yl)-5-(4-((4-((4-((2-methyl-3-oxoisoindolin-4-yl)oxy)-5-(trifluoromethyl)pyrimidin-2-yl)amino)benzyl)amino)piperidin-1-yl)isoindoline-1,3-dione]
7 | 8.55 nM | 97% | CNC(=O)c1ccccc1Nc1cc(Nc2ccc(CNC3CCN(c4ccc5c(c4)C(=O)N(C4CCC(=O)NC4=O)C5=O)CC3)c(F)c2)ncc1C(F)(F)F (stereo not shown) [Compound A29, 2-((2-((4-(((1-(2-(2,6-dioxopiperidin-3-yl)-1,3-dioxoisoindolin-5-yl)piperidin-4-yl)amino)-methyl)-3-fluorophenyl)amino)-5-(trifluoromethyl)pyridin-4-yl)amino)-N-methyl-benzamide]
8 | 0.86 nM | 94% | CNC(=O)c1ccccc1Nc1nc(Nc2ccc(CNC3CCN(c4ccc5c(c4)C(=O)N(C4CCC(=O)NC4=O)C5=O)CC3)c(F)c2)ncc1C(F)(F)F (stereo not shown) [Compound A37, 2-((2-((4-(((1-(2-(2,6-dioxopiperidin-3-yl)-1,3-dioxoisoindolin-5-yl)piperidin-4-yl)-amino)methyl)-3-fluorophenyl)amino)-5-(trifluoromethyl)pyrimidin-4-yl)amino)-N-methyl-benzamide]
9 | 0.2 nM | 98% | CNC(=O)c1ccccc1Nc1nc(Nc2ccc(CNC3CCN(c4ccc(C5CCC(=O)NC5=O)cc4)CC3)cc2)ncc1C(F)(F)F (stereo not shown) [Compound B2, 2-((2-((4-(((1-(4-(2,6-Dioxopiperidin-3-yl)phenyl)piperidin-4-yl)amino)methyl)-phenyl)amino)-5-(trifluoromethyl)pyrimidin-4-yl)amino)-N-methylbenzamide]
10 | 0.78 nM | 95% | COc1cc(CNC2CCN(c3ccc4c(c3)C(=O)N(C3CCC(=O)NC3=O)C4=O)CC2)c(F)cc1Nc1ncc(C(F)(F)F)c(Oc2cccc3c2C(=O)N(C)C3)n1 (stereo not shown) [Compound A52, 2-(2,6-Dioxopiperidin-3-yl)-5-(4-((2-fluoro-5-methoxy-4-((4-((2-methyl-3-oxoisoindolin-4-yl)oxy)-5-(trifluoromethyl)pyrimidin-2-yl)amino)benzyl)amino)piperidin-1-yl)-isoindoline-1,3-dione]
11 | 0.96 nM | 92% | CNC(=O)c1ccccc1Nc1nc(Nc2ccc(CCN3CCN(c4ccc5c(c4)C(=O)N(C4CCC(=O)NC4=O)C5=O)CC3)c(F)c2)ncc1C(F)(F)F (stereo not shown) [Compound A44, 2-((2-((4-(2-(4-(2-(2,6-dioxopiperidin-3-yl)-1,3-dioxoisoindolin-5-yl)piperazin-1-yl)ethyl)-3-fluorophenyl)amino)-5-(trifluoromethyl)pyrimidin-4-yl)amino)-N-methylbenzamide]
12 | 4.6 nM | 79% | CN(c1ccccc1CNc1cc(Nc2ccc(C(=O)NC3CN(c4ccc5c(c4)C(=O)N(C4CCC(=O)NC4=O)C5=O)C3)cc2)ncc1C(F)(F)F)S(C)(=O)=O (stereo not shown) [Compound A20, N-(1-(2-(2,6-Dioxopiperidin-3-yl)-1,3-dioxoisoindolin-5-yl)azetidin-3-yl)-4-((4-((2-(N-methylmethylsulfonamido)benzyl)amino)-5-(trifluoromethyl)pyridin-2-yl)amino)-benzamide]
13 | 2.1 nM | 98% | CN(c1nccnc1CNc1nc(Nc2cccc(C(=O)NC3CCN(CC4CCN(c5ccc6c(c5)C(=O)N(C5CCC(=O)NC5=O)C6=O)CC4)CC3)c2)ncc1C(F)(F)F)S(C)(=O)=O (stereo not shown) [Compound A10, N-(1-((1-(2-(2,6-Dioxopiperidin-3-yl)-1,3-dioxoisoindolin-5-yl)piperidin-4-yl)-methyl)piperidin-4-yl)-3-((4-(((3-(N-methylmethylsulfonamido)pyrazin-2-yl)methyl)amino)-5-(trifluoromethyl)pyrimidin-2-yl)amino)benzamide]
14 | 2.6 nM | 93% | CN(c1ccccc1CNc1cc(Nc2ccc(C(=O)NC3CCN(c4ccc5c(c4)C(=O)N(C4CCC(=O)NC4=O)C5=O)CC3)cc2)ncc1C(F)(F)F)S(C)(=O)=O (stereo not shown) [Compound A15, N-(1-(2-(2,6-dioxopiperidin-3-yl)-1,3-dioxoisoindolin-5-yl)piperidin-4-yl)-4-((4-((2-(N-methylmethylsulfonamido)benzyl)amino)-5-(trifluoromethyl)pyridin-2-yl)amino)-benzamide]
15 | 0.9 nM | 84% | COc1cc(CN[C@@H]2CCN(c3ccc4c(c3)C(=O)N(C3CCC(=O)NC3=O)C4=O)C2)c(F)cc1Nc1ncc(C(F)(F)F)c(Oc2cccc3c2C(=O)N(C)C3)n1 (stereo partly drawn) [Compound A58, 2-(2,6-Dioxopiperidin-3-yl)-5-((R)-3-((2-fluoro-5-methoxy-4-((4-((2-methyl-3-oxoisoindolin-4-yl)oxy)-5-(trifluoromethyl)pyrimidin-2-yl)amino)benzyl)amino)pyrrolidin-1-yl)isoindoline-1,3-dione]
16 | 4.1 nM | 100% | CN(c1nccnc1CNc1nc(Nc2ccc(OCCCCCCOc3ccc4c(c3)C(=O)N(C3CCC(=O)NC3=O)C4=O)cc2)ncc1C(F)(F)F)S(C)(=O)=O (stereo not shown) [Compound A8, N-(3-(((2-((4-((6-((2-(2,6-Dioxopiperidin-3-yl)-1,3-dioxoisoindolin-5-yl)oxy)-hexyl)oxy)phenyl)amino)-5-(trifluoromethyl)pyrimidin-4-yl)amino)methyl)pyrazin-2-yl)-N-methylmethanesulfonamide]
17 | 1.4 nM | 94% | CN(c1nccnc1CNc1nc(Nc2cccc(C(=O)N3CC(OC4CCN(c5ccc6c(c5)C(=O)N(C5CCC(=O)NC5=O)C6=O)CC4)C3)c2)ncc1C(F)(F)F)S(C)(=O)=O (stereo not shown) [Compound A13, N-(3-(((2-((3-(3-((1-(2-(2,6-dioxopiperidin-3-yl)-1,3-dioxoisoindolin-5-yl)-piperidin-4-yl)oxy)azetidine-1-carbonyl)phenyl)amino)-5-(trifluoromethyl)pyrimidin-4-yl)-amino)methyl)pyrazin-2-yl)-N-methylmethanesulfonamide]

From patent publication US20250214967A1, “FAK DEGRADERS, PHARMACEUTICAL COMPOSITIONS, AND THERAPEUTIC APPLICATIONS” (Berrybio (Shanghai) Limited, priority 2022, published 2025)
